According to patent publication US9849114B2, “Oxymetazoline for the treatment of ano-rectal disorders” (RDD Pharma Ltd., priority 2011, dated 2017):
Counter-ions that a name gives are not always drawn.

How the values were obtained:
[1] = Solubility of oxymetazoline; assay type: physicochemical; details: aqueous and non aqueous media
healthy human subjects [2] = test: Change in resting anal pressure at different oxymetazoline doses (Example 2); assay type: in vivo
Healthy volunteers = test: Resting anal pressure by anorectal manometry after intraanal administration (Example 1); assay type: in vivo, human
Experimental: Preparations of phenylephrine hydrochloride and oxymetazoline were prepared. The oxymetazoline was first dissolved in propylene glycol and then added to polyethylene glycol 1500 to obtain a solution in the concentration of 1 mg/1 mL.
The preparations were administered intraanally. The doses are expressed as both a volume of a concentration of the drug solution and also as milligrams of the active ingredient.
Resting anal pressure was determined by anorectal manometry for measuring contractility in the anus and rectum using the ManoScan 360™ catheter (Sierra Scientific Instruments).
Healthy volunteers, men and women of 18 to 55 years old received intraanal dose of 40 mg (40 mL) or 80 mg (80 mL) phenylephrine or a dose of 1 mg oxymetazoline (1 mL; 0.1%). None of the volunteers had symptoms of anal incontinence nor previous anal surgery and presumed to have intact internal and external anal sphincters. Pre-treatment mean resting pressure was 85 mmHg for the phenyephrine 40 mg group, and 81 mmHg for the phenylephrine 80 mg group.
After the application of the aforementioned doses of phenylephrine and oxymetazoline, resting anal pressure was determined at the following time intervals: […], […] The results are summarized in Tables 1 and 2 below and in FIG. 1.

healthy human subjects [3] = test: Cardiac effect of oxymetazoline: blood pressure and heart rate (Example 2); assay type: in vivo
From the text: The effect of oxymetazoline on cardiac parameters was examined in four healthy human subjects.

[4] = system: patient having a reduced anal resting pressure; details: phenylephrine concentrations below 10%, topical; cited from earlier work
[5] = on lowering the pH of formulations, even with PVPs or PEGs; cited from earlier work
[6] = oxymetazoline 1 mg (1 mL; 0.1%) intraanal, time 0 min
[7] = oxymetazoline 1 mg (1 mL; 0.1%) intraanal, time 60 min
[8] = oxymetazoline 1 mg (1 mL; 0.1%) intraanal, time 180 min
[9] = oxymetazoline 1 mg (1 mL; 0.1%) intraanal, time 300 min
[10] = Phenylephrine 40 mg intraanal, time 90 min
[11] = Phenylephrine 40 mg intraanal, time 180 min
[12] = Phenylephrine 40 mg intraanal, time 240 min
[13] = Phenylephrine 80 mg intraanal, time 90 min
[14] = Phenylephrine 80 mg intraanal, time 180 min
[15] = Phenylephrine 80 mg intraanal, time 240 min

**Q.** With `Cc1cc(C(C)(C)C)c(O)c(C)c1CC1=NCCN1` [Oxymetazoline, 3-(4,5-dihydro-1H-imidazol-2-ylmethyl)-2,4-dimethyl-6-tert-butyl-phenol] as the compound, how does the Solubility [1] read?
**A.** The Solubility was “soluble in aqueous and non aqueous media”.

**Q.** And the “Change in resting anal pressure” value (healthy human subjects [2]; Oxymetazoline dose 0.01%)?
**A.** Its value is 11 mmHg.

**Q.** And the “Change in resting anal pressure” value (healthy human subjects [2]; Oxymetazoline dose 0.1%)?
**A.** The value was 18.5 mmHg.

**Q.** What about the “Significance of change in resting anal pressure with respect to baseline” value (healthy human subjects [2]; Oxymetazoline dose 0.1%) of the same compound?
**A.** The value was “statistically significant”.

**Q.** What about the “Change in resting anal pressure” value (healthy human subjects [2]; Oxymetazoline dose 0.5%) of the same compound?
**A.** The value was 24.75 mmHg.

**Q.** And the “Significance of change in resting anal pressure with respect to baseline” value (healthy human subjects [2]; Oxymetazoline dose 0.5%)?
**A.** The value was “statistically significant”.

**Q.** What about the “Change Relative to T = 0 (resting anal pressure)” value (Healthy volunteers; [6]) of the same compound?
**A.** Its value is 0 mmHg.

**Q.** And the Resting anal pressure (Healthy volunteers; [6])?
**A.** Its Resting anal pressure is 75 mmHg.

**Q.** What about the “Change Relative to T = 0 (resting anal pressure)” value (Healthy volunteers; [7]) of the same compound?
**A.** Its value is 18 mmHg.

**Q.** What about the Resting anal pressure (Healthy volunteers; [7]) of the same compound?
**A.** The Resting anal pressure was 93 mmHg.

**Q.** And the “Change Relative to T = 0 (resting anal pressure)” value (Healthy volunteers; [8])?
**A.** Its value is 28 mmHg.

**Q.** And the Resting anal pressure (Healthy volunteers; [8])?
**A.** Its Resting anal pressure is 103 mmHg.

**Q.** What about the “Change Relative to T = 0 (resting anal pressure)” value (Healthy volunteers; [9]) of the same compound?
**A.** The value was 27 mmHg.

**Q.** What about the Resting anal pressure (Healthy volunteers; [9]) of the same compound?
**A.** The Resting anal pressure was 102 mmHg.

**Q.** What about the “Increase in the maximum resting pressure relative to the pressure before treatment” value (Healthy volunteers; oxymetazoline 1 mg intraanal) of the same compound?
**A.** The value was “about 30 mmHg”.

**Q.** And the “Time for which the increased resting anal pressure was maintained” value (Healthy volunteers; oxymetazoline 1 mg intraanal, duration of the recording)?
**A.** The value was “at least 5 hours”.

**Q.** What about the “Change in diastolic blood pressure” value (healthy human subjects [3]; Oxymetazoline dose 0.01%) of the same compound?
**A.** The value was 2 mmHg.

**Q.** What about the “Change in heart rate” value (healthy human subjects [3]; Oxymetazoline dose 0.01%) of the same compound?
**A.** The value was −3 beats/min.

**Q.** What about the “Change in systolic Blood pressure” value (healthy human subjects [3]; Oxymetazoline dose 0.01%) of the same compound?
**A.** Its value is 6 mmHg.

**Q.** And the “Change in diastolic blood pressure” value (healthy human subjects [3]; Oxymetazoline dose 0.1%)?
**A.** Its value is 0 mmHg.

**Q.** And the “Change in heart rate” value (healthy human subjects [3]; Oxymetazoline dose 0.1%)?
**A.** Its value is 0 beats/min.

**Q.** And the “Change in systolic Blood pressure” value (healthy human subjects [3]; Oxymetazoline dose 0.1%)?
**A.** Its value is 5 mmHg.

**Q.** And the “Change in diastolic blood pressure” value (healthy human subjects [3]; Oxymetazoline dose 0.5%)?
**A.** The value was 1 mmHg.

**Q.** And the “Change in heart rate” value (healthy human subjects [3]; Oxymetazoline dose 0.5%)?
**A.** Its value is 1 beats/min.

**Q.** What about the “Change in systolic Blood pressure” value (healthy human subjects [3]; Oxymetazoline dose 0.5%) of the same compound?
**A.** Its value is 3 mmHg.

**Q.** What about the “Changes in the diastolic blood pressure, systolic blood pressure or in the heart rate” value (healthy human subjects [3]; low doses of about 0.1%) of the same compound?
**A.** Its value is “did not induce any changes”.

**Q.** And the Cardiovascular side effect (healthy human subjects [3]; low doses of oxymetazoline (0.01%-0.5%))?
**A.** The Cardiovascular side effect was “do not induce any cardiovascular side effect”.

**Q.** With `CNC[C@H](O)c1cccc(O)c1` [Phenylephrine] as the compound, how does the “Increase in the maximum resting pressure” value [4] read?
**A.** Its value is “no significant increase”.

**Q.** And the “Maximum increase in anal pressure” value (Healthy volunteers; 40 mg phenylephrine intraanal)?
**A.** Its value is 10 mmHg.

**Q.** What about the “Time to reach the initial (pre-treatment) resting anal pressure” value (Healthy volunteers; 40 mg phenylephrine intraanal) of the same compound?
**A.** Its value is “less than 5 hours”.

**Q.** What about the “Maximum increase in anal pressure” value (Healthy volunteers; 80 mg phenylephrine intraanal) of the same compound?
**A.** The value was 22.5 mmHg.

**Q.** What about the “Time in which increased pressure dropped nearly to the pressure prior to treatment” value (Healthy volunteers; 80 mg phenylephrine intraanal) of the same compound?
**A.** Its value is at most 3 h.

**Q.** And the “Time in which resting anal pressure dropped down to the pressure observed prior to treatment” value (Healthy volunteers; 80 mg phenylephrine intraanal)?
**A.** The value was “less than 5 hours”.

**Q.** And the “Change Relative to T = 0 (resting anal pressure)” value (Healthy volunteers; Phenylephrine 40 mg intraanal, time 0 min)?
**A.** Its value is 0 mmHg.

**Q.** And the Resting anal pressure (Healthy volunteers; Phenylephrine 40 mg intraanal, time 0 min (pre-treatment))?
**A.** The Resting anal pressure was 85 mmHg.

**Q.** And the “Change Relative to T = 0 (resting anal pressure)” value (Healthy volunteers; [10])?
**A.** The value was 10 mmHg.

**Q.** And the Resting anal pressure (Healthy volunteers; [10])?
**A.** Its Resting anal pressure is 95 mmHg.

**Q.** And the “Change Relative to T = 0 (resting anal pressure)” value (Healthy volunteers; [11])?
**A.** The value was 7.5 mmHg.

**Q.** What about the Resting anal pressure (Healthy volunteers; [11]) of the same compound?
**A.** The Resting anal pressure was 92.5 mmHg.

**Q.** And the “Change Relative to T = 0 (resting anal pressure)” value (Healthy volunteers; [12])?
**A.** Its value is 0 (±1.75) mmHg.

**Q.** What about the Resting anal pressure (Healthy volunteers; [12]) of the same compound?
**A.** Its Resting anal pressure is 83.25 mmHg.

**Q.** What about the “Change Relative to T = 0 (resting anal pressure)” value (Healthy volunteers; Phenylephrine 80 mg intraanal, time 0 min) of the same compound?
**A.** Its value is 0 mmHg.

**Q.** And the Resting anal pressure (Healthy volunteers; Phenylephrine 80 mg intraanal, time 0 min (pre-treatment))?
**A.** The Resting anal pressure was 81 mmHg.

**Q.** What about the “Change Relative to T = 0 (resting anal pressure)” value (Healthy volunteers; [13]) of the same compound?
**A.** Its value is 22.5 mmHg.

**Q.** And the Resting anal pressure (Healthy volunteers; [13])?
**A.** Its Resting anal pressure is 103.5 mmHg.

**Q.** What about the “Change Relative to T = 0 (resting anal pressure)” value (Healthy volunteers; [14]) of the same compound?
**A.** Its value is 6.75 mmHg.

**Q.** And the Resting anal pressure (Healthy volunteers; [14])?
**A.** Its Resting anal pressure is 87.75 mmHg.

**Q.** And the “Change Relative to T = 0 (resting anal pressure)” value (Healthy volunteers; [15])?
**A.** The value was 0 (±1.75) mmHg.

**Q.** And the Resting anal pressure (Healthy volunteers; [15])?
**A.** The Resting anal pressure was 80.25 mmHg.

**Q.** For `Cc1cc(C(C)(C)C)c(O)c(C)c1CC1=NCCN1` [oxymetazoline HCl, 6-tert-butyl-3-(2-imidazolin-2-ylmethyl)-2,4-dimentylphenol hydrochloride], which Photodegradation level [5] is on record?
**A.** Its Photodegradation level is “significantly reduced”.
